This passage reports melting point results from patent publication US8962674B2 (Tokyo Institute of Technology, priority 2006, dated 2015).

The structures appear in SMILES notation.

A word on the melting point: it is the temperature, or range, at which the solid turns liquid. The compound `COc1cccc(O)c1/C=C/C(=O)CC(=O)/C=C/c1ccc(O)cc1` [CU275, (1E,6E)-1-(2-hydroxy-6-methoxyphenyl)-7-(4-hydroxyphenyl)hepta-1,6-diene-3,5-dione] showed a melting point of 94 to 99 °C. Then `COc1ccc(/C=C/C(=O)CC(=O)/C=C/c2cc(Cl)cc(Cl)c2O)cc1O` [CU276, (1E,6E)-1-(3,5-dichloro-2-hydroxyphenyl)-7-(3-hydroxy-4-methoxyphenyl)hepta-1,6-diene-3,5-dione], with 212 to 214 °C. Turning to `CCN(CC)c1ccc(/C=C/C(=O)CC(=O)/C=C/c2ccc(O)c(OC)c2)c(O)c1` [CU277, (1E,6E)-1-(4-diethylamino-2-hydroxyphenyl)-7-(4-hydroxy-3-methoxyphenyl)hepta-1,6-diene-3,5-dione], the melting point lay within 89 to 92 °C. Compound `CCN(CC)c1ccc(/C=C/C(=O)CC(=O)/C=C/c2ccc(OC)c(O)c2)c(O)c1` [CU278, (1E,6E)-1-(4-diethylamino-2-hydroxyphenyl)-7-(3-hydroxy-4-methoxyphenyl)hepta-1,6-diene-3,5-dione] came in with a melting point of 101 to 108 °C.

Consider `COc1cc(/C=C/C(=O)CC(=O)/C=C/c2c(O)cccc2OC)ccc1O` [CU279, (1E,6E)-1-(2-hydroxy-6-methoxyphenyl)-7-(4-hydroxy-3-methoxyphenyl)hepta-1,6-diene-3,5-dione], for which the melting point fell in the range of 161 to 164 °C. As for `COc1ccc(/C=C/C(=O)CC(=O)/C=C/c2c(O)cccc2OC)cc1O` [CU280, (1E,6E)-1-(2-hydroxy-6-methoxyphenyl)-7-(3-hydroxy-4-methoxyphenyl)hepta-1,6-diene-3,5-dione], the melting point lay in the range of 181 to 185 °C.

Take `O=C(/C=C/c1ccc(O)cc1)CC(=O)/C=C/c1cc(Cl)cc(Cl)c1O` [CU281, (1E,6E)-1-(3,5-dichloro-2-hydroxyphenyl)-7-(4-hydroxyphenyl)hepta-1,6-diene-3,5-dione]: the melting point was in the range of 199 to 201 °C.

Compound `COc1ccc(/C=C/C(=O)CC(=O)/C=C/c2ccc(OC)c(O)c2)c(O)c1` [CU282, (1E,6E)-1-(2-hydroxy-4-methoxyphenyl)-7-(3-hydroxy-4-methoxyphenyl)hepta-1,6-diene-3,5-dione] registered a melting point of 147 to 152 °C.

`COCOc1cccc(O)c1/C=C/C(=O)CC(=O)/C=C/c1ccc(OC)c(O)c1` [CU313, (1E,6E)-1-[2-hydroxy-6-(methoxymethoxy)phenyl]-7-(3-hydroxy-4-methoxyphenyl)hepta-1,6-diene-3,5-dione] displayed a melting point of 89 to 93 °C. With `COC(=O)c1ccc(/C=C/C(=O)CC(=O)/C=C/c2ccc(O)c(OC)c2)cc1` [CU316, (1E,6E)-1-(4-hydroxy-3-methoxyphenyl)-7-[4-(methoxycarbonyl)phenyl]hepta-1,6-diene-3,5-dione], the melting point lay within 149 to 152 °C. For `O=C(/C=C/c1ccc(O)cc1)CC(=O)/C=C/c1cc2ccccc2o1` [CU321, (1E,6E)-1-(benzofuran-2-yl)-7-(4-hydroxyphenyl)hepta-1,6-diene-3,5-dione], the melting point was 173 to 178 °C. Regarding `O=C(/C=C/c1ccc(O)cc1)CC(=O)/C=C/c1cccc2cccnc12` [CU323, (1E,6E)-1-(4-hydroxyphenyl)-7-(quinolin-8-yl)hepta-1,6-diene-3,5-dione], the melting point was in the range of 112 to 117 °C. Next, `O=C(/C=C/c1ccc(O)cc1)CC(=O)/C=C/c1cccc2ncccc12` [CU324, (1E,6E)-1-(4-hydroxyphenyl)-7-(quinolin-5-yl)hepta-1,6-diene-3,5-dione]: 272 to 275 °C.

For the compound `O=C(/C=C/c1ccc(O)cc1)CC(=O)/C=C/c1ccc(-c2ccccn2)cc1` [CU328, (1E,6E)-1-(4-hydroxyphenyl)-7-[4-(pyridin-2-yl)phenyl]hepta-1,6-diene-3,5-dione], the melting point lay in the range of 229 to 232 °C.

For the compound `O=C(/C=C/c1ccc(O)cc1)CC(=O)/C=C/c1ccc(-n2ccnc2)cc1` [CU329, (1E,6E)-1-(4-hydroxyphenyl)-7-[4-(1H-imidazol-1-yl)phenyl]hepta-1,6-diene-3,5-dione], the melting point was in the range of 255 to 260 °C.
